These results are taken from US11554116B2, “Agent for preventing and/or treating alzheimer's disease” (KYOTO UNIVERSITY, priority 2017, dated 2023).

The subject of this assay is Aβ production (Aβ1-40, 1-42 in culture supernatant). The assay can be described thus: Aβ assay in cerebral cortex nerve cells induced from familial AD patient iPS cells (PSEN1 G384A). The assay is classed as cell-based, human.
Setting [1] is: added at 0.0016, 0.008, 0.04, 0.2, 1, 5, 25 μM to cerebral cortex nerve cells, 48 hr.

Counter-ions that a name gives are not always drawn. Like-named read-outs stand apart in the source and are kept apart here.

In the case of `CC(C)[C@@]1(NC(=O)[C@@H]2C=C3c4cccc5[nH]cc(c45)C[C@H]3N(C)C2)O[C@@]2(O)[C@@H]3CCCN3C(=O)[C@H](Cc3ccccc3)N2C1=O` [Ergocristine, ergocristine], the Aβ production-lowering action entry is recorded as “showed a similar Aβ production-lowering action”.
`C=CCN1CCc2nc(N)sc2CC1` [Talipexole]: the “change of Aβ production” value under setting [1] was “none of the compounds changed Aβ production”.
Take `CC(C)C[C@H]1C(=O)N2CCC[C@H]2[C@]2(O)O[C@](NC(=O)[C@@H]3C=C4c5cccc6[nH]c(Br)c(c56)C[C@H]4N(C)C3)(C(C)C)C(=O)N12` [bromocriptine]: the Aβ42/40 ratio result is “lower Aβ42/40 ratio”, the Aβ production-lowering action entry was “decreases the production of Aβ” and the “lowering of Aβ42 subtype compared with Aβ40” value is recorded as “more efficiently reduced the production of Aβ42 subtype than Aβ40”.
Consider `CC(C)[C@@]1(NC(=O)[C@@H]2C[C@@H]3c4cccc5[nH]cc(c45)C[C@H]3N(C)C2)O[C@@]2(O)[C@@H]3CCCN3C(=O)[C@H](Cc3ccccc3)N2C1=O` [Dihydroergocristine mesylate, dihydroergocristine], for which the Aβ production-lowering action entry is given as “showed a similar Aβ production-lowering action”.
Consider `Cc1cccc(C(=O)NCN2CCN(c3ccccc3C#N)CC2)c1` [PD168077], for which the “change of Aβ production” value under setting [1] is listed as “none of the compounds changed Aβ production”.
Turning to `CN1C[C@H](C(=O)N[C@]2(C)O[C@@]3(O)[C@@H]4CCCN4C(=O)[C@H](Cc4ccccc4)N3C2=O)C[C@@H]2c3cccc4[nH]cc(c34)C[C@H]21.CS(=O)(=O)O` [Dihydroergotamine Mesylate, dihydroergotamine], the Aβ production-lowering action entry is given as “showed a similar Aβ production-lowering action”.
Regarding `CCCN[C@H]1CCc2nc(N)sc2C1` [Pramipexole dihydrochloride], the “change of Aβ production” value under setting [1] is given as “none of the compounds changed Aβ production”.
Take `CN1C[C@H](C(=O)N[C@]2(C)O[C@@]3(O)[C@@H]4CCCN4C(=O)[C@H](Cc4ccccc4)N3C2=O)C=C2c3cccc4[nH]cc(c34)C[C@H]21.CN1C[C@H](C(=O)N[C@]2(C)O[C@@]3(O)[C@@H]4CCCN4C(=O)[C@H](Cc4ccccc4)N3C2=O)C=C2c3cccc4[nH]cc(c34)C[C@H]21.O=C(O)C(O)C(O)C(=O)O` [Ergotamine Tartrate, ergotamine]: the Aβ production-lowering action result is given as “showed a similar Aβ production-lowering action”.
For `CCCN(CCC)CCc1cccc2c1CC(=O)N2` [Ropinirole hydrochloride], the “change of Aβ production” value under setting [1] is “none of the compounds changed Aβ production”.
On to `C=CCN1C[C@H](C(=O)N(CCCN(C)C)C(=O)NCC)C[C@@H]2c3cccc4[nH]cc(c34)C[C@H]21` [Cabergoline], for which the Aβ production-lowering action result (at 25 μM, cerebral cortex nerve cells, 48 hr) is “showed an Aβ production-lowering action”.
As to `CCCN1C[C@H](CSC)C[C@@H]2c3cccc4[nH]cc(c34)C[C@H]21` [Pergolide mesylate], for the setting “at 5, 25 μM, cerebral cortex nerve cells, 48 hr”, the Aβ production-lowering action result is listed as “showed an Aβ production-lowering action”.
For the compound `Cl.NCCc1ccc(O)c(O)c1` [dopamine hydrochloride], the “change of Aβ production” value is on record as “none of the compounds changed Aβ production”.
`Oc1cc2c(cc1O)C(c1ccccc1)CNCC2` (stereo not drawn) [SKF38393]: the “change of Aβ production” value under setting [1] was “none of the compounds changed Aβ production”.
Consider `CC(C)C[C@H]1C(=O)N2CCC[C@H]2[C@]2(O)O[C@](NC(=O)[C@@H]3C=C4c5cccc6[nH]cc(c56)C[C@H]4N(C)C3)(C(C)C)C(=O)N12` [Alpha-Ergocryptine, α-ergocryptine], for which the Aβ42/40 ratio result was “did not change”; the Aβ production-lowering action result is “showed an Aβ production-lowering action similar to that of bromocriptine”; the “lowering of Aβ42 subtype compared with Aβ40” value is “lowered Aβ40 and 42 to the same degree”.
